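Grown in 96-well plates, cells were treated for 48 hours with each compound at five concentrations. Insufficient inhibition: endpoint recorded as highest concentration tested. The concentration for 50% growth inhibition is given as GI50. TGI is the concentration that stops growth completely.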

Test systems include 786-0 renal; LOX IMVI melanoma; HT29 colon; KM12 colon; OVCAR-3 ovarian; SK-MEL-5 melanoma; HS 578T breast; UO-31 renal; HCT-116 colon; EKVX NSCLC.
What all share (assay): NCI anticancer screen, dose series, 48 h

`Cn1cc(C2=C(c3cn(CCCCCO)c4ccccc34)C(=O)NC2=O)c2ccccc21`: the GI50 with 786-0 renal was 5.81 µM; in the assay on LOX IMVI melanoma, 4.99 µM; in the assay on HT29 colon, 3.31 µM; in the assay with KM12 colon it was 4.22 µM; in the assay with OVCAR-3 ovarian it was 5.48 µM; with SK-MEL-5 melanoma it was 3.29 µM. Also, the GI50 in the assay with HS 578T breast is 3.74 µM; with UO-31 renal, 4.11 µM; with HCT-116 colon, 4.67 µM. In addition, the TGI in the assay with 786-0 renal was more than 21.5 µM; in the assay on LOX IMVI melanoma it was more than 19.4 µM; in the assay on HT29 colon it was 13.9 µM; in the assay on KM12 colon, 16.1 µM; in the assay with OVCAR-3 ovarian it was 17.3 µM; with SK-MEL-5 melanoma it was 6.82 µM. For the same compound, the TGI was 17.5 µM with HS 578T breast, 12.9 µM in the assay with UO-31 renal and more than 25 µM with HCT-116 colon.

Take `COc1cc(/C=C/C(=O)c2c(-c3ccc(F)cc3)nc3sc(C)nn23)cc(OC)c1OC`: the GI50 with 786-0 renal was 3.31 µM; in the assay on LOX IMVI melanoma, 1.76 µM; with HT29 colon, 2.55 µM; in the assay with KM12 colon, 1.97 µM; with OVCAR-3 ovarian it was 2.63 µM; with SK-MEL-5 melanoma it was 1.86 µM. Moreover, the GI50 in the assay with HS 578T breast is 5.39 µM; in the assay with UO-31 renal, 1.95 µM; with HCT-116 colon, 1.64 µM. The TGI in the assay with 786-0 renal turned out to be 10.6 µM; in the assay with LOX IMVI melanoma it was 3.52 µM; in the assay with HT29 colon, 5.51 µM; with KM12 colon, 4.59 µM; with OVCAR-3 ovarian, 7 µM; with SK-MEL-5 melanoma, 3.99 µM. Also, the TGI with HS 578T breast is more than 100 µM; in the assay on UO-31 renal it was 4.94 µM; with HCT-116 colon, 3.07 µM.

With `c1ccc2c(CNCCCCCCCCNCc3cccc4ccccc34)cccc2c1`, the TGI in the assay on 786-0 renal worked out at 3.31 µM; with LOX IMVI melanoma, 2.52 µM; with HT29 colon it was 3.35 µM; with KM12 colon, 3.24 µM; in the assay on OVCAR-3 ovarian, 22.5 µM; in the assay on SK-MEL-5 melanoma it was 3.32 µM. For the same compound, the TGI with EKVX NSCLC amounted to 18.8 µM; in the assay on UO-31 renal, 3.45 µM; with HCT-116 colon, 3.05 µM.

As for `NCCSC(c1ccccc1)(c1ccccc1)c1ccccc1`, the GI50 with 786-0 renal was 1.22 µM; in the assay on LOX IMVI melanoma, 1.42 µM; with HT29 colon, 1.95 µM; in the assay on KM12 colon, 1.84 µM; in the assay on OVCAR-3 ovarian it was 1.52 µM; in the assay with SK-MEL-5 melanoma it was 1.01 µM. The GI50 with HS 578T breast was 1.09 µM; in the assay on UO-31 renal, 2.03 µM; in the assay on HCT-116 colon, 0.373 µM. For the same compound, the TGI with 786-0 renal is 12.1 µM; in the assay with LOX IMVI melanoma it was 2.9 µM; with HT29 colon, 4.23 µM; in the assay with KM12 colon, 4.82 µM; with OVCAR-3 ovarian, 6.13 µM; in the assay on SK-MEL-5 melanoma it was 2.25 µM. The TGI with HS 578T breast turned out to be 5.29 µM; in the assay with UO-31 renal, 12.9 µM; with HCT-116 colon it was 1.49 µM.

For the compound `NC(N)=N/N=C/c1c(-c2cccnc2)nc2sc(Cl)cn12`, the GI50 is 17 µM with 786-0 renal; 12.4 µM in the assay with LOX IMVI melanoma; 3.95 µM in the assay on KM12 colon; 15.3 µM in the assay on OVCAR-3 ovarian; 15.2 µM in the assay with SK-MEL-5 melanoma; 16.7 µM in the assay on EKVX NSCLC. The figures for the GI50 in the assay with HS 578T breast and in the assay on UO-31 renal were 22.3 µM and 33.8 µM, respectively. In addition, the TGI with 786-0 renal was 46.6 µM; in the assay on LOX IMVI melanoma it was 24.8 µM; in the assay with KM12 colon, 14.3 µM; with OVCAR-3 ovarian, 30.1 µM; in the assay with SK-MEL-5 melanoma, 28.6 µM; in the assay on EKVX NSCLC, 32.9 µM. Besides, the figures for the TGI with HS 578T breast and in the assay on UO-31 renal were 46.6 µM and more than 100 µM, respectively.

For `Cn1c(-c2c(N)n(Cc3ccc(F)cc3)c3nc(C#N)c(C#N)nc23)nc2ccccc21`, the GI50 was 0.918 µM in the assay with 786-0 renal; 0.739 µM with LOX IMVI melanoma; 2.19 µM in the assay with KM12 colon; 0.842 µM in the assay with OVCAR-3 ovarian; 2.97 µM with SK-MEL-5 melanoma; 4.16 µM in the assay on EKVX NSCLC. In addition, the figures for the GI50 with HS 578T breast and with UO-31 renal were 4.67 µM and 2.51 µM, respectively. Moreover, the TGI with 786-0 renal is 3.59 µM; with LOX IMVI melanoma, 2.18 µM; in the assay with KM12 colon it was 11.2 µM; in the assay with OVCAR-3 ovarian, 2.6 µM; with SK-MEL-5 melanoma, more than 50 µM; in the assay on EKVX NSCLC, more than 50 µM. In addition, the results for the TGI with HS 578T breast and with UO-31 renal were 26.7 µM and more than 50 µM, respectively.

Take `COc1ccc2nc3cccc([N+](=O)[O-])c3c(NC(C)CN(C)C)c2c1` (centres undefined): the GI50 with 786-0 renal is 2.22 µM; in the assay with LOX IMVI melanoma it was 1.91 µM; in the assay on HT29 colon, 1.63 µM; with KM12 colon it was 2.18 µM; in the assay with OVCAR-3 ovarian it was 3.15 µM; with SK-MEL-5 melanoma it was 1.18 µM. Moreover, the figures for the GI50 with EKVX NSCLC, in the assay on UO-31 renal and in the assay with HCT-116 colon were 6.96 µM, 1.7 µM and 1.44 µM, respectively. Besides, the TGI in the assay on 786-0 renal amounted to 7.12 µM; with LOX IMVI melanoma it was 5.04 µM; with HT29 colon it was 6.8 µM; in the assay on KM12 colon, 6.65 µM; in the assay on OVCAR-3 ovarian it was 10.4 µM; in the assay with SK-MEL-5 melanoma, 2.49 µM. Besides, the TGI in the assay with EKVX NSCLC turned out to be 34.4 µM; in the assay with UO-31 renal, 3.62 µM; with HCT-116 colon it was 7.49 µM.

As for `Cc1ccc(C2=Nc3ccccc3S(=O)C(c3ccc4c(c3)OCO4)C2)cc1` (centres undefined), the TGI is 44 µM with 786-0 renal; 29.8 µM with LOX IMVI melanoma; 31.5 µM with HT29 colon; 57.8 µM with KM12 colon; 69.4 µM with OVCAR-3 ovarian; 29.2 µM in the assay on SK-MEL-5 melanoma. The figures for the TGI in the assay with EKVX NSCLC, in the assay with UO-31 renal and in the assay on HCT-116 colon were more than 100 µM, more than 100 µM and 37.3 µM, respectively.

On to `Cc1ccc(C(=O)NCCN(C)C)c2nc3ccccc3cc12`, for which the TGI with 786-0 renal was more than 100 µM; in the assay on LOX IMVI melanoma, 10.4 µM; in the assay on HT29 colon it was 11.3 µM; in the assay on KM12 colon it was 6.91 µM; in the assay with OVCAR-3 ovarian, 6.79 µM; with SK-MEL-5 melanoma, 2.95 µM. For the same compound, the TGI worked out at 4.76 µM in the assay on EKVX NSCLC, 11.1 µM with UO-31 renal and 10.9 µM with HCT-116 colon.

`COc1cc(CCC(=O)NC[C@@H](O)c2ccccc2)ccc1O`: the GI50 with 786-0 renal, with LOX IMVI melanoma, with HT29 colon, in the assay with KM12 colon, in the assay with OVCAR-3 ovarian and in the assay with SK-MEL-5 melanoma was more than 100 µM each time. In addition, the GI50 with EKVX NSCLC, in the assay with UO-31 renal and in the assay on HCT-116 colon was more than 100 µM in each case. Further, the TGI in the assay with 786-0 renal, in the assay on LOX IMVI melanoma, in the assay on HT29 colon, in the assay with KM12 colon, in the assay on OVCAR-3 ovarian and with SK-MEL-5 melanoma was more than 100 µM in each case. The TGI in the assay on EKVX NSCLC, with UO-31 renal and in the assay on HCT-116 colon was more than 100 µM each time.

For the origin of these results see PubChem BioAssay (NCI).
